Results reported in patent publication US8530467B2, “Benzoimidazole compounds and uses thereof” (Neomed Institute, priority 2009, dated 2013).

How the values were obtained:
Assay type in all cases: cell-based
[1] = biological target: T1, hP2X3 (human Purinergic P2X receptors subtype 3) (Homo sapiens, UniProt P56373); assay: FLIPR FLUO-4 AM calcium assay, α,β-methylene-ATP as agonist (Method 3); settings: hP2X3-expressing RLE cells, 500 nM α,β-methylene-ATP, read-out: Human P2X3 IC50 (μM) Method 3
T1 construct: expressed in transfected cells
T1 sequence (P56373 1-397): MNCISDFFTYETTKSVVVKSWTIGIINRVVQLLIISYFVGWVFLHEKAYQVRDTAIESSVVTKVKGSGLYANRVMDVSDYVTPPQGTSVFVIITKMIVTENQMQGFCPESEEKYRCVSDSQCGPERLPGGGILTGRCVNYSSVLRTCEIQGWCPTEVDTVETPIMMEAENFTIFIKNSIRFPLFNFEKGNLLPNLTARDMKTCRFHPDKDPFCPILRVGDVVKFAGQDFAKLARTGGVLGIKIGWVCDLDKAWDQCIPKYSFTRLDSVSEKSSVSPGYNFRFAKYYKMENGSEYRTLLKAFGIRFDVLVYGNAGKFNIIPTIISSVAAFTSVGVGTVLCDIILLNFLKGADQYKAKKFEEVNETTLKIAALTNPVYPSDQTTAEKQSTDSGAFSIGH
Method: (§1) The antagonist properties of compounds in the present invention were assayed as inhibitors of intracellular calcium increase induced by activation of hP2X3 (human Purinergic P2X receptors subtype 3, accession number AB016608 for clone A and accession number NM_002559 for clone B), expressed in RLE cells (rat liver […], ATCC. The RLE/hP2X3 cells were grown in William's medium 1× (Gibco, 12551-032), supplemented with 10% Fetal bovine serum (Wisent, 090850), 2 mM L-Glutamine (Wisent, 609-065-EL), and 600 μg/mL Geneticin G-418 (Wisent, 61234) in a humidified incubator (5% CO2 and 37° C.).
In a third assay, hP2X3-expressing cells were maintained in culture and the day before the experiment, the cells were plated in 384-black polylysine coated plates (Becton/Dickinson, 356663) at 8000 cells/well in 50 μL/well in William's medium without Geneticin, and then placed in an incubator for 24 hr. On the day of the experiment, the cells and test compounds were prepared as follows. […] Experiments were initiated by measuring a baseline fluorescence reading for 10 sec, followed by adding 12.5 μL of compounds and data sampling for a total 280 seconds. […] During entire experiment, fluorescence emission was read by the FLIPR on board CCD camera using filter with emission wavelength of 520-545 nm. […] Hill coefficients and % inhibitions can also be determined.

[2] = biological target: T1, hP2X3 (human Purinergic P2X receptors subtype 3); assay: Fluo-4 calcium mobilization assay on FDSS7000, ATP as agonist (Method 1); settings: RLE cells stably expressing hP2X3; 2 uM ATP; 20 min preincubation; read-out: Human P2X3 IC50 (μM) Method 1
Method: as §1
(§2) In one assay, Fluo-4 assay on FDSS7000 (Hamamatsu) was performed using cryopreserved RLE cells stably expressing hP2X3 plated in 384 well plates, 24 hr before the experiment at a density appropriate for obtaining the desired final confluence. After processing the cell plates with Fluo-4 and performing a subsequent incubation followed by washing steps, a double addition was carried out. The first addition included the test compounds diluted in HBSS buffer containing 2 mM CaCl2 preincubated for 20 min before a second addition. The second addition included 2 uM of ATP. Calcium mobilization was measured with the FDSS7000 over a time lapse of 3 min, and fluorescent counts were exported for analysis. […] Hill coefficients and % inhibitions can also be determined.

[3] = biological target: T1, hP2X3 (human Purinergic P2X receptors subtype 3); assay: Fluo-4 calcium mobilization assay, α,β methylene-ATP as agonist (Method 2); settings: RLE cells stably expressing hP2X3; α,β methylene-ATP instead of ATP; read-out: Human P2X3 IC50 (μM) Method 2
Method: as §1
as §2, with “The second addition included 2 uM of ATP.” left out, “determined. […]” for “determined.”

CNC(=O)c1cc(F)c(-c2nc3cc(C)ccc3n2C[C@H]2CN(C(=O)OC)CCO2)c(F)c1 [Example 3, (S)-methyl 2-((2-(2,6-difluoro-4-(methylcarbamoyl)phenyl)-5-methyl-1H-benzo[d]imidazol-1-yl)methyl)morpholine-4-carboxylate]
IC50 [1]: 0.016 µM
IC50 [2]: 0.007 µM
IC50 [3]: 0.014 µM

CNC(=O)c1cc(F)c(-c2nc3cc(C)ccc3n2C[C@@H]2CN(C(=O)OC)CCO2)c(F)c1 [Example 5, (R)-methyl 2-((2-(2,6-difluoro-4-(methylcarbamoyl)phenyl)-5-methyl-1H-benzo[d]imidazol-1-yl)methyl)morpholine-4-carboxylate]
IC50 [1]: 0.016 µM
